Values quoted from earlier work in paper PMC9405973, “Altered Conformational Landscape upon Sensing Guanine Nucleotides in a Disease Mutant of Elongation Factor-like 1 (EFL1) GTPase” (Biomolecules, 2022).
Where “and” joins values, the source holds several entries; their conditions need not be identical. Identical values can stand only once. Like-named read-outs stand apart in the source and are kept apart here.

System: wild-type Efl1
Settings: cited from earlier work; for -TΔSb / Kd / ΔGb / ΔHb / ΔCpb: guanine nucleotide
[1] = Effect of Mg^2+, wild-type Efl1 − Sdo1, 30 °C
[2] = Effect of Sdo1, wild-type Efl1 − Mg^2+, 30 °C

For `Nc1nc2c(ncn2[C@@H]2O[C@H](COP(=O)(O)OP(=O)(O)O)[C@@H](O)[C@H]2O)c(=O)[nH]1` [GDP], the “-TΔs” value [1] is listed as -0.5 kcal/mol, the Δg [1] is listed as 0.6 kcal/mol and the Δh [1] is listed as 1.1 kcal/mol. For the same compound, the “κ (heterotropic cooperativity)” value [1] was 0.4, the “-TΔs” value [2] was 1.5 kcal/mol and the Δg [2] was 0.8 kcal/mol. For the same compound, the Δh [2] was -0.7 kcal/mol, the “κ (heterotropic cooperativity)” value [2] was 0.3 and the “-TΔSb” value (+Mg^2+, 30 °C) was -0.5 kcal/mol. The Kd (+Mg^2+, 30 °C) was 37 µM, the ΔGb (+Mg^2+, 30 °C) was -6.1 kcal/mol and the ΔHb (+Mg^2+, 30 °C) was -5.6 ± 0.2 kcal/mol. The ΔCpb (+Mg^2+) was −310 ± 5 cal mol^−1 K^−1 and −310 cal mol^−1 K^−1, the “-TΔSb” value (−Mg^2+, 30 °C) was 0.0 kcal/mol and the Kd (−Mg^2+, 30 °C) was 16 µM. For the same compound, the ΔGb (−Mg^2+, 30 °C) was -6.7 kcal/mol, the ΔHb (−Mg^2+, 30 °C) was -6.7 ± 0.3 kcal/mol and the ΔCpb (−Mg^2+) was −318 ± 35 cal mol^−1 K^−1 and −318 cal mol^−1 K^−1.

In the case of `Nc1nc2c(ncn2[C@@H]2O[C@H](COP(=O)(O)OP(=O)(O)OP(=O)(O)O)[C@@H](O)[C@H]2O)c(=O)[nH]1` [GTP], the “-TΔs” value [1] is given as -1.3 kcal/mol, the Δg [1] is given as -0.4 kcal/mol and the Δh [1] is given as 0.9 kcal/mol. The “κ (heterotropic cooperativity)” value [1] was 2, the “-TΔs” value [2] was -7.0 kcal/mol and the Δg [2] was -1.8 kcal/mol. For the same compound, the Δh [2] was 5.2 kcal/mol, the “κ (heterotropic cooperativity)” value [2] was 22.3 and the “-TΔSb” value (+Mg^2+, 30 °C) was 1.0 kcal/mol. The Kd (+Mg^2+, 30 °C) was 125 µM, the ΔGb (+Mg^2+, 30 °C) was -5.4 kcal/mol and the ΔHb (+Mg^2+, 30 °C) was -6.4 ± 0.4 kcal/mol. The ΔCpb (+Mg^2+) was −560 ± 23 cal mol^−1 K^−1 and −560 cal mol^−1 K^−1, the “-TΔSb” value (−Mg^2+, 30 °C) was 2.3 kcal/mol and the Kd (−Mg^2+, 30 °C) was 250 µM. For the same compound, the ΔGb (−Mg^2+, 30 °C) was -5.0 kcal/mol, the ΔHb (−Mg^2+, 30 °C) was -7.3 ± 0.3 kcal/mol and the ΔCpb (−Mg^2+) was −700 ± 34 cal mol^−1 K^−1 and −700 cal mol^−1 K^−1. The “fold by which Sdo1 favoured the interaction with GTP” value (wild-type Efl1) was 20–40 fold.
